According to patent US9481654B2, “Compositions and methods for inhibition of the JAK pathway” (Rigel Pharmaceuticals, Inc., priority 2006, dated 2016):

Experiments:
[1] = test system: primary human T-cells (IL-2 induced proliferation, JAK-1/JAK-3, Stat-5); test: Primary Human T-Cell Proliferation Assay Stimulated with IL-2 (CellTiter-Glo); format: cell-based; conditions: Table III Example 4
Summary of the method: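 Read-out is intracellular ATP luminescence (CellTiter-Glo) after 72 h at 37 °C of IL-2-driven growth. Cells, pre-stimulated via TCR and CD28 then washed free of IL-2, were resuspended in Yssel's medium, given 80 U/mL IL-2 in the cell suspension plus duplicate compound; unstimulated wells lacked IL-2.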

[2] = test system: IL-4 stimulated CD23 upregulation in human Ramos B cells (JAK-1/JAK-3, Stat-6); test: Assay for Ramos B-Cell Line Stimulated with IL-4 (CD23 upregulation, FACS); format: cell-based; conditions: Table III Example 3
Summary of the method: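 Flow cytometry of CD23 staining after 20-24 h IL-4 stimulation (50 units/mL final) of human Ramos B cells in RPMI with 5% serum. Cells, 5×10^4 per point, received compound or DMSO vehicle for 1 h at 37° C prior to stimulation.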

Cc1cnc(Nc2cc(S(N)(=O)=O)cc(S(N)(=O)=O)c2)nc1Nc1ccc(CNS(=O)(=O)C2CC2)cc1 [Compound I-84, N4-(4-cyclopropylsulfonylaminomethyl)phenyl-N2-(3,5-diaminosulfonyl)phenyl-5-methyl-2,4-pyrimidinediamine]
IC50 [1]: 237 nM | IC50 [2]: 355 nM

Cc1cnc(Nc2cccc(S(N)(=O)=O)c2)nc1Nc1ccc(CNS(=O)(=O)CC(F)(F)F)cc1 [Compound I-97, N2-(3-aminosulfonyl)phenyl-5-methyl-N4-(4-trifluoroethylsulfonylaminomethyl)phenyl-2,4-pyrimidinediamine]
IC50 [1]: 48.8 nM | IC50 [2]: 34.7 nM

Cc1ccc(Nc2ncc(Cl)c(Nc3ccc(CNS(=O)(=O)C4CC4)cc3)n2)cc1S(N)(=O)=O [Compound I-113, N2-(3-aminosulfonyl-4-methyl)phenyl-5-chloro-N4-(4-cyclopropylsulfonylaminomethyl)phenyl-2,4-pyrimidinediamine]
IC50 [1]: 17 nM | IC50 [2]: 18.6 nM

NS(=O)(=O)c1cccc(Nc2ncc(Cl)c(Nc3ccc(CNS(=O)(=O)C4CC4)cc3)n2)c1 [Compound I-114, N2-(3-aminosulfonyl)phenyl-5-chloro-N4-(4-cyclopropylsulfonylaminomethyl)phenyl-2,4-pyrimidinediamine]
IC50 [1]: 9.2 nM | IC50 [2]: 20.6 nM

NS(=O)(=O)c1ccc(Nc2ncc(Cl)c(Nc3ccc(CNS(=O)(=O)C4CC4)cc3)n2)cc1 [Compound I-115, N2-(4-aminosulfonyl)phenyl-5-chloro-N4-(4-cyclopropylsulfonylaminomethyl)phenyl-2,4-pyrimidinediamine]
IC50 [1]: 19.2 nM | IC50 [2]: 23.3 nM

CCC(=O)N(Cc1cccc(Nc2nc(Nc3cccc(S(N)(=O)=O)c3)ncc2C)c1)S(=O)(=O)C1CC1 [Compound I-116, N2-(3-aminosulfonyl)phenyl-N4-[3-(N-cyclopropylsulfonyl-N-propionyl)aminomethyl]phenyl-5-methyl-2,4-pyrimidinediamine]
IC50 [1]: 29.9 nM | IC50 [2]: 36.7 nM

Cc1ccc(Nc2ncc(C)c(Nc3ccc(CNS(=O)(=O)C(C)C)cc3)n2)cc1S(N)(=O)=O [Compound I-117, N2-(3-aminosulfonyl-4-methyl)phenyl-N4-(4-isopropylsulfonylaminomethyl)phenyl-5-methyl-2,4-pyrimidinediamine]
IC50 [1]: 17.9 nM | IC50 [2]: 38.8 nM

Cc1cnc(Nc2cccc(S(N)(=O)=O)c2)nc1Nc1ccc(CNS(=O)(=O)C(C)C)cc1 [Compound I-118, N2-(3-aminosulfonyl)phenyl-N4-(4-isopropylsulfonylaminomethyl)phenyl-5-methyl-2,4-pyrimidinediamine]
IC50 [1]: 15.8 nM | IC50 [2]: 39.8 nM

Cc1cnc(Nc2cccc(S(N)(=O)=O)c2)nc1Nc1ccc(CNS(=O)(=O)C2CC2)c(Cl)c1 [Compound I-119, N2-(3-aminosulfonyl)phenyl-N4-(3-chloro-4-cyclopropylsulfonylaminomethyl)phenyl-5-methyl-2,4-pyrimidinediamine]
IC50 [1]: 95.4 nM | IC50 [2]: 53.5 nM

Cc1cnc(Nc2cccc(S(N)(=O)=O)c2)nc1Nc1cccc(CN(C)S(=O)(=O)C2CC2)c1 [Compound I-120, N2-(3-aminosulfonyl)phenyl-N4-[3-(N-cyclopropylsulfonyl-N-methyl)aminomethyl]phenyl-5-methyl-2,4-pyrimidinediamine]
IC50 [1]: 47.3 nM | IC50 [2]: 67.1 nM

Cc1cnc(Nc2cccc(S(N)(=O)=O)c2)nc1Nc1ccc(CN(C)S(=O)(=O)C2CC2)cc1 [Compound I-121, N2-(3-aminosulfonyl)phenyl-N4-[4-(N-cyclopropylsulfonyl-N-methyl)aminomethyl]phenyl-5-methyl-2,4-pyrimidinediamine]
IC50 [1]: 46.5 nM | IC50 [2]: 73.6 nM

Cc1cnc(Nc2ccc(S(N)(=O)=O)cc2)nc1Nc1ccc(CNS(=O)(=O)C(C)C)cc1 [Compound I-123, N2-(4-aminosulfonyl)phenyl-N4-(4-isopropylsulfonylaminomethyl)phenyl-5-methyl-2,4-pyrimidinediamine]
IC50 [1]: 42.9 nM | IC50 [2]: 83.6 nM

Cc1cnc(Nc2ccc(S(N)(=O)=O)cc2)nc1Nc1cccc(CN(C)S(=O)(=O)C2CC2)c1 [Compound I-124, N2-(4-aminosulfonyl)phenyl-N4-[3-(N-cyclopropylsulfonyl-N-methyl)aminomethyl]phenyl-5-methyl-2,4-pyrimidinediamine]
IC50 [1]: 132 nM | IC50 [2]: 89.8 nM

Cc1ccc(Nc2ncc(C)c(Nc3ccc(CNS(=O)(=O)C4CC4)c(Cl)c3)n2)cc1S(N)(=O)=O [Compound I-125, N2-(3-aminosulfonyl-4-methyl)phenyl-N4-(3-chloro-4-cyclopropylsulfonylaminomethyl)phenyl-5-methyl-2,4-pyrimidinediamine]
IC50 [1]: 138 nM | IC50 [2]: 94.9 nM

Cc1ccc(Nc2ncc(C)c(Nc3ccc(CN(C)S(=O)(=O)C4CC4)cc3)n2)cc1S(N)(=O)=O [Compound I-126, N2-(3-aminosulfonyl-4-methyl)phenyl-N4-[4-(N-cyclopropylsulfonyl-N-methyl)aminomethyl]phenyl-5-methyl-2,4-pyrimidinediamine]
IC50 [1]: 74.2 nM | IC50 [2]: 104 nM

Cc1cnc(Nc2cccc(S(=O)(=O)NCc3ccccc3)c2)nc1Nc1ccc(CNS(=O)(=O)C2CC2)cc1 [Compound I-154, N2-(3-benzylaminosulfonyl)phenyl-N4-(4-cyclopropylsulfonylaminomethyl)phenyl-5-methyl-2,4-pyrimidinediamine]
IC50 [1]: 61.9 nM | IC50 [2]: 84.6 nM

CNS(=O)(=O)c1cccc(Nc2ncc(C)c(Nc3ccc(CNS(=O)(=O)C4CC4)cc3)n2)c1 [Compound I-161, N4-(4-cyclopropylsulfonylaminomethyl)phenyl-5-methyl-N2-(3-methylaminosulfonyl)phenyl-2,4-pyrimidinediamine]
IC50 [1]: 11.2 nM | IC50 [2]: 16.7 nM

CNS(=O)(=O)c1cccc(Nc2ncc(C)c(Nc3cccc(CNS(=O)(=O)C4CC4)c3)n2)c1 [Compound I-162, N4-(3-cyclopropylsulfonylaminomethyl)phenyl-5-methyl-N2-(3-methylaminosulfonyl)phenyl-2,4-pyrimidinediamine]
IC50 [1]: 46.3 nM | IC50 [2]: 57.9 nM

C#CCNS(=O)(=O)c1ccc(Nc2ncc(C)c(Nc3ccc(CNS(=O)(=O)C4CC4)cc3)n2)cc1 [Compound I-164, N4-(4-cyclopropylsulfonylaminomethyl)phenyl-5-methyl-N2-(4-propargylaminosulfonyl)phenyl-2,4-pyrimidinediamine]
IC50 [1]: 32.8 nM | IC50 [2]: 61.3 nM

C#CCNS(=O)(=O)c1cccc(Nc2ncc(C)c(Nc3ccc(CNS(=O)(=O)C4CC4)cc3)n2)c1 [Compound I-165, N4-(4-cyclopropylsulfonylaminomethyl)phenyl-5-methyl-N2-(3-propargylaminosulfonyl)phenyl-2,4-pyrimidinediamine]
IC50 [1]: 19.9 nM | IC50 [2]: 34.8 nM

Cc1cnc(Nc2cccc(S(=O)(=O)NC(C)C)c2)nc1Nc1ccc(CNS(=O)(=O)C2CC2)cc1 [Compound I-173, N4-(4-cyclopropylsulfonylaminomethyl)phenyl-N2-(3-isopropylaminosulfonyl)phenyl-5-methyl-2,4-pyrimidinediamine]
IC50 [1]: 42.4 nM | IC50 [2]: 34.8 nM

CCNS(=O)(=O)c1ccc(Nc2ncc(C)c(Nc3ccc(CNS(=O)(=O)C4CC4)cc3)n2)cc1 [Compound I-175, N4-(4-cyclopropylsulfonylaminomethyl)phenyl-N2-(4-ethylaminosulfonyl)phenyl-5-methyl-2,4-pyrimidinediamine]
IC50 [1]: 102 nM | IC50 [2]: 46.1 nM

CCNS(=O)(=O)c1cccc(Nc2ncc(C)c(Nc3ccc(CNS(=O)(=O)C4CC4)cc3)n2)c1 [Compound I-176, N4-(4-cyclopropylsulfonylaminomethyl)phenyl-N2-(3-ethylaminosulfonyl)phenyl-5-methyl-2,4-pyrimidinediamine]
IC50 [1]: 64.5 nM | IC50 [2]: 7.98 nM

CCCNS(=O)(=O)c1cccc(Nc2ncc(C)c(Nc3ccc(CNS(=O)(=O)C4CC4)cc3)n2)c1 [Compound I-178, N4-(4-cyclopropylsulfonylaminomethyl)phenyl-5-methyl-N2-(3-propylaminosulfonyl)phenyl-2,4-pyrimidinediamine]
IC50 [1]: 122 nM | IC50 [2]: 23 nM

Cc1cnc(Nc2cccc(S(=O)(=O)NCC3CC3)c2)nc1Nc1ccc(CNS(=O)(=O)C2CC2)cc1 [Compound I-180, N2-(3-cyclopropylmethylaminosulfonyl)phenyl-N4-(4-cyclopropylsulfonylaminomethyl)phenyl-5-methyl-2,4-pyrimidinediamine]
IC50 [1]: 148 nM | IC50 [2]: 25.7 nM

COCCCNS(=O)(=O)c1ccc(Nc2ncc(C)c(Nc3ccc(CNS(=O)(=O)C4CC4)cc3)n2)cc1 [Compound I-181, N4-(4-cyclopropylsulfonylaminomethyl)phenyl-N2-[4-(3-methoxypropyl)aminosulfonyl]phenyl-5-methyl-2,4-pyrimidinediamine]
IC50 [1]: 121 nM | IC50 [2]: 73.1 nM

COCCCNS(=O)(=O)c1cccc(Nc2ncc(C)c(Nc3ccc(CNS(=O)(=O)C4CC4)cc3)n2)c1 [Compound I-182, N4-(4-cyclopropylsulfonylaminomethyl)phenyl-N2-[3-(3-methoxypropyl)aminosulfonyl]phenyl-5-methyl-2,4-pyrimidinediamine]
IC50 [1]: 55.1 nM | IC50 [2]: 25.7 nM

COCCNS(=O)(=O)c1cccc(Nc2ncc(C)c(Nc3ccc(CNS(=O)(=O)C4CC4)cc3)n2)c1 [Compound I-184, N4-(4-cyclopropylsulfonylaminomethyl)phenyl-N2-[3-(2-methoxyethyl)aminosulfonyl]phenyl-5-methyl-2,4-pyrimidinediamine]
IC50 [1]: 51.7 nM | IC50 [2]: 14.1 nM
